Laboratory results: PubChem BioAssay (NCI)
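GI50 marks 50% less growth. TGI: total growth inhibition.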

Columns and labels:
Assay in all cases: inhibition of tumour cell growth, NCI panel, 384-well format
SF-539 CNS = test system: SF-539 CNS
CAKI-1 renal = test system: CAKI-1 renal
IGROV1 ovarian = test system: IGROV1 ovarian
HT29 colon = test system: HT29 colon
DU-145 prostate = test system: DU-145 prostate
LOX IMVI melanoma = test system: LOX IMVI melanoma
NCI/ADR-RES ovarian = test system: NCI/ADR-RES ovarian
HOP-92 NSCLC = test system: HOP-92 NSCLC
OVCAR-3 ovarian = test system: OVCAR-3 ovarian
HCT-15 colon = test system: HCT-15 colon
UO-31 renal = test system: UO-31 renal
RPMI-8226 leukemia = test system: RPMI-8226 leukemia
786-0 renal = test system: 786-0 renal
PC-3 prostate = test system: PC-3 prostate
SK-MEL-28 melanoma = test system: SK-MEL-28 melanoma
ACHN renal = test system: ACHN renal
U251 glioblastoma = test system: U251 glioblastoma
T-47D breast = test system: T-47D breast
HCT-116 colon = test system: HCT-116 colon
SK-OV-3 ovarian = test system: SK-OV-3 ovarian
BT-549 breast = test system: BT-549 breast
MOLT-4 leukemia = test system: MOLT-4 leukemia
KM12 colon = test system: KM12 colon
SNB-19 CNS = test system: SNB-19 CNS
M14 melanoma = test system: M14 melanoma
SF-295 CNS = test system: SF-295 CNS
CCRF-CEM leukemia = test system: CCRF-CEM leukemia
HOP-62 NSCLC = test system: HOP-62 NSCLC
OVCAR-8 ovarian = test system: OVCAR-8 ovarian
OVCAR-4 ovarian = test system: OVCAR-4 ovarian
OVCAR-5 ovarian = test system: OVCAR-5 ovarian
SK-MEL-2 melanoma = test system: SK-MEL-2 melanoma
RXF 393 renal = test system: RXF 393 renal
K-562 leukemia = test system: K-562 leukemia
MALME-3M melanoma = test system: MALME-3M melanoma
MDA-MB-468 breast = test system: MDA-MB-468 breast
SF-268 CNS = test system: SF-268 CNS
MCF7 breast = test system: MCF7 breast
NCI-H522 lung = test system: NCI-H522 lung
SNB-75 CNS = test system: SNB-75 CNS
UACC-62 melanoma = test system: UACC-62 melanoma
NCI-H23 lung = test system: NCI-H23 lung
HL-60(TB) leukemia = test system: HL-60(TB) leukemia
A549 NSCLC = test system: A549 NSCLC
NCI-H226 lung = test system: NCI-H226 lung
SN12C renal = test system: SN12C renal
SW-620 colon = test system: SW-620 colon

Q: For `N[C@@H](Cc1ccc(N(CCCl)CCCl)cc1)C(=O)O`, which GI50 (SF-539 CNS) is on record?
A: 15.4 µM

Q: And the TGI (SF-539 CNS)?
A: 58.5 µM

Q: And the GI50 (CAKI-1 renal)?
A: 13.2 µM

Q: What about the GI50 (IGROV1 ovarian) of the same compound?
A: 85.1 µM

Q: And the GI50 (HT29 colon)?
A: 47 µM

Q: What about the GI50 (DU-145 prostate) of the same compound?
A: 28.5 µM

Q: And the TGI (DU-145 prostate)?
A: 90 µM

Q: What about the GI50 (LOX IMVI melanoma) of the same compound?
A: 23.1 µM

Q: What about the GI50 (NCI/ADR-RES ovarian) of the same compound?
A: 55.3 µM

Q: What about the GI50 (HOP-92 NSCLC) of the same compound?
A: 28.2 µM

Q: What about the GI50 (OVCAR-3 ovarian) of the same compound?
A: 26 µM

Q: And the GI50 (HCT-15 colon)?
A: 11.1 µM

Q: And the GI50 (UO-31 renal)?
A: 52 µM

Q: And the GI50 (RPMI-8226 leukemia)?
A: 7.95 µM

Q: What about the TGI (RPMI-8226 leukemia) of the same compound?
A: 22.6 µM

Q: What about the GI50 ([…]-0 renal) of the same compound?
A: 28.9 µM

Q: What about the GI50 (PC-3 prostate) of the same compound?
A: 80.2 µM

Q: And the GI50 (SK-MEL-28 melanoma)?
A: 89.7 µM

Q: What about the GI50 (ACHN renal) of the same compound?
A: 19 µM

Q: What about the TGI (ACHN renal) of the same compound?
A: 43.7 µM

Q: And the GI50 (U251 glioblastoma)?
A: 16.1 µM

Q: And the GI50 (T-47D breast)?
A: 41 µM

Q: And the GI50 (HCT-116 colon)?
A: 23.8 µM

Q: And the GI50 (SK-OV-3 ovarian)?
A: 20.5 µM

Q: And the TGI (SK-OV-3 ovarian)?
A: 96.2 µM

Q: What about the GI50 (BT-549 breast) of the same compound?
A: 16.9 µM

Q: What about the TGI (BT-549 breast) of the same compound?
A: 82.1 µM

Q: What about the GI50 (MOLT-4 leukemia) of the same compound?
A: 1.01 µM

Q: What about the TGI (MOLT-4 leukemia) of the same compound?
A: 2.2 µM

Q: And the GI50 (KM12 colon)?
A: 70.3 µM

Q: What about the GI50 (SNB-19 CNS) of the same compound?
A: 48.1 µM

Q: And the GI50 (M14 melanoma)?
A: 20.8 µM

Q: And the GI50 (SF-295 CNS)?
A: 19.2 µM

Q: What about the TGI (SF-295 CNS) of the same compound?
A: 43.1 µM

Q: And the GI50 (CCRF-CEM leukemia)?
A: 2.38 µM

Q: What about the TGI (CCRF-CEM leukemia) of the same compound?
A: 4.41 µM

Q: What about the GI50 (HOP-62 NSCLC) of the same compound?
A: 11.7 µM

Q: And the TGI (HOP-62 NSCLC)?
A: 40.1 µM

Q: And the GI50 (OVCAR-8 ovarian)?
A: 11.8 µM

Q: And the GI50 (OVCAR-4 ovarian)?
A: 40.7 µM

Q: What about the GI50 (OVCAR-5 ovarian) of the same compound?
A: 34.2 µM

Q: What about the GI50 (SK-MEL-2 melanoma) of the same compound?
A: 63.1 µM

Q: What about the GI50 (RXF 393 renal) of the same compound?
A: 17.3 µM

Q: And the TGI (RXF 393 renal)?
A: 33.3 µM

Q: What about the GI50 (K-562 leukemia) of the same compound?
A: 27.8 µM

Q: What about the GI50 (MALME-3M melanoma) of the same compound?
A: 14 µM

Q: And the TGI (MALME-3M melanoma)?
A: 30.7 µM

Q: What about the GI50 (MDA-MB-468 breast) of the same compound?
A: 4.53 µM

Q: What about the TGI (MDA-MB-468 breast) of the same compound?
A: 18.7 µM

Q: And the GI50 (SF-268 CNS)?
A: 7.04 µM

Q: And the TGI (SF-268 CNS)?
A: 44.9 µM

Q: And the GI50 (MCF7 breast)?
A: 9.86 µM

Q: And the GI50 (NCI-H522 lung)?
A: 14.4 µM

Q: And the TGI (NCI-H522 lung)?
A: 28.1 µM

Q: And the GI50 (SNB-75 CNS)?
A: 20.9 µM

Q: What about the GI50 (UACC-62 melanoma) of the same compound?
A: 15.2 µM

Q: And the GI50 (NCI-H23 lung)?
A: 17.8 µM

Q: And the TGI (NCI-H23 lung)?
A: 60.5 µM

Q: What about the GI50 (HL-60(TB) leukemia) of the same compound?
A: 1.34 µM

Q: And the TGI (HL-60(TB) leukemia)?
A: 2.78 µM

Q: And the GI50 (A549 NSCLC)?
A: 26.9 µM

Q: What about the GI50 (NCI-H226 lung) of the same compound?
A: 87.8 µM

Q: What about the GI50 (SN12C renal) of the same compound?
A: 8.12 µM

Q: What about the GI50 (SW-620 colon) of the same compound?
A: 26.8 µM
